According to US20230111914A1, “SYNTHETIC TRITERPENOIDS WITH NITROGEN-BASED SUBSTITUENTS AT C-17 AND METHODS OF USE THEREOF” (REATA PHARMACEUTICALS, INC., priority 2019, published 2023):
“And” between values parts separate entries of the source, which are not always exact repeats. Equal entries are not always repeated. Where two headings read alike, the source gives them in different places. Marks after values point to notes of the source that are not given here.

What was measured:
[1] = test system: AREc32 reporter cell line (luciferase reporter under eight copies of the rat GSTA2 ARE sequence); assay: AREc32 luciferase reporter activation; assay type: cell-based, human; settings: for EC (2-fold): Homo sapiens, Arec32, concentration that increases the luminescence signal 2-fold above vehicle, 19 h treatment, read-out: AREc32 EC2X (Mean ± SD); for AREc32 Relative to CC in Same Experiment (Mean ± SD): average of ratios from three replicate experiments
[2] = test system: IFNγ-induced NO production in RAW 264.7 cells; assay: Nitric oxide suppression assay (IFNγ-induced NO production, Griess nitrite readout); assay type: cell-based, mouse; settings: for IC50: Mus musculus, RAW264.7, RAW 264.7 cells, read-out: NO IC50
CYP3A4 = target: T1, CYP3A4 (Homo sapiens, UniProt P08684); assay: CYP3A4 (midazolam) inhibition in human liver microsomes; assay type: in vitro ADME; settings: probe midazolam; human liver microsomes 0.1 mg/mL, midazolam substrate, 1 μM test compound, 37° C. 10 min
T1 construct: containing 0.1 mg/mL human liver microsomes; from tissue; host or cells: human liver microsomes
Experimental: Methods. Several compounds were evaluated for CYP3A4 (midazolam) inhibition in human liver microsomes at 1 μM. CYP3A4 inhibition was tested using an in vitro assay as generally described in Dierks et al. (Drug Metabolism Deposition, 29:23-29, 2001, which is incorporated by reference herein). Each sample, containing 0.1 mg/mL human liver microsomes, […] as substrate, and 1 μM of test compound, was incubated at 37° C. for 10 min. Following incubation, the metabolite 1-hydroxymidazolam was measured using HPLC-MS/MS. Peak areas corresponding to the metabolite of the substrate were recorded. The percent of control activity was then calculated by comparing the peak area obtained in the presence of the test compound to that obtained in the absence of the test compound. Subsequently, the percent inhibition was calculated by subtracting the percent control activity from 100 for each compound.

[3] = 2 h pretreatment, 20 ng/mL interferon gamma 24 h, average of trials per footnote

T1 sequence (P08684 whole entry): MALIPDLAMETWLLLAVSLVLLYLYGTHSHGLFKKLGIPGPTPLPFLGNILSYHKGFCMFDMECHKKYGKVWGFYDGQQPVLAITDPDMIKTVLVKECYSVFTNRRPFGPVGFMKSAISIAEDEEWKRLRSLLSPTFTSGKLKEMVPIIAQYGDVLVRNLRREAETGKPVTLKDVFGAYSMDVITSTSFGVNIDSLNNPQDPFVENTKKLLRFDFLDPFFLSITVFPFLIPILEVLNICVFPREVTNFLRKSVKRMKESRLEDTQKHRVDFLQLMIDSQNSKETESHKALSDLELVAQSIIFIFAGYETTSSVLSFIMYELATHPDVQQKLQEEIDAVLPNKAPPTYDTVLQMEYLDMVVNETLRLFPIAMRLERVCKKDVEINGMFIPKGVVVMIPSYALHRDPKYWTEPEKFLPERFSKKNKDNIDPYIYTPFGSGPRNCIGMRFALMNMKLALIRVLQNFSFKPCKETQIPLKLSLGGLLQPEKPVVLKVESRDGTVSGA

Compound | AREc32 EC2X Relative to RTA 402 (Mean ± SD) [1] | EC (2-fold) [1] | NO IC50 Rel. to RTA 402 [2] | IC50 [2, 3] | inhibition at 10 min, 1 µM (CYP3A4) | AREc32 Relative to CC in Same Experiment (Mean ± SD) ([1]; comparison compound CC2) | times more active (NO IC50) than CC2 relative to RTA 402 [2] | AREc32 Relative to CC in Same Experiment (Mean ± SD) ([1]; comparison compound CC4) | times more active (NO IC50) than 63236 relative to RTA 402 [2] | times more active (NO IC50) than 63866 relative to RTA 402 [2] | IC50 ([2]; interferon gamma)
CC1(C)CC[C@]2(CN3CCC3=O)CC[C@]3(C)[C@H](C(=O)C=C4[C@@]5(C)C=C(C#N)C(=O)C(C)(C)[C@@H]5CC[C@]43C)[C@@H]2C1 [Compound T10] | 0.5 ± 0.13^c fold | 0.0052 ± 0.00249 µM | 0.45 ± 0.08^g fold | 1.12 ± 0.44 nM | 33.2% |  |  |  |  |  | 
Cc1cn(C[C@]23CCC(C)(C)C[C@H]2[C@H]2C(=O)C=C4[C@@]5(C)C=C(C#N)C(=O)C(C)(C)[C@@H]5CC[C@@]4(C)[C@]2(C)CC3)nn1 [Compound T48] | 1.3 ± 0.21^g fold | 0.0129 ± 0.00143 µM | 1.19 fold and 1.19 ± 0.18^e fold | 2.5 nM | 29.8% | 0.802 ± 0.050 | roughly 1.3 times |  |  |  | 
CC1(C)CC[C@]2(Cn3cnnn3)CC[C@]3(C)[C@H](C(=O)C=C4[C@@]5(C)C=C(C#N)C(=O)C(C)(C)[C@@H]5CC[C@]43C)[C@@H]2C1 [Compound T18] | 0.6 ± 0.05^g fold | 0.0057 ± 0.00044 µM | 0.76 fold and 0.76 ± 0.10^e fold | 0.92 nM | 46.5% | 0.356 ± 0.015 | more than twice as active |  |  |  | 
CC1(C)CC[C@]2(n3ccnc3)CC[C@]3(C)[C@H](C(=O)C=C4[C@@]5(C)C=C(C#N)C(=O)C(C)(C)[C@@H]5CC[C@]43C)[C@@H]2C1 [Compound T37] | 2.1 ± 0.50^f fold | 0.0243 ± 0.0027 µM | 1.37 ± 0.26^e fold | 3.22 ± 1.52 nM | 86.5% |  |  | 0.878 ± 0.094 |  |  | 
CC1(C)CC[C@]2(CNC(=O)C3CC3)CC[C@]3(C)[C@H](C(=O)C=C4[C@@]5(C)C=C(C#N)C(=O)C(C)(C)[C@@H]5CC[C@]43C)[C@@H]2C1 [Compound T4] | 0.3 ± 0.08^b fold | 0.0032 ± 0.00032 µM | 0.26 fold and 0.26 ± 0.08^h fold | 0.51 nM | 30.7% |  |  |  | more than 220 times | roughly 4.5 times | 
CC1(C)CC[C@]2(Cn3ccnn3)CC[C@]3(C)[C@H](C(=O)C=C4[C@@]5(C)C=C(C#N)C(=O)C(C)(C)[C@@H]5CC[C@]43C)[C@@H]2C1 [Compound T19] |  | 0.0084 ± 0.00126 µM | 0.93 fold and 0.93 ± 0.22^e fold | 1.11 nM | 33.8% | 0.522 ± 0.052 | roughly 1.6 times |  |  |  | 1.11 nM
CC1(C)CC[C@]2(n3cc(C(F)F)nn3)CC[C@]3(C)[C@H](C(=O)C=C4[C@@]5(C)C=C(C#N)C(=O)C(C)(C)[C@@H]5CC[C@]43C)[C@@H]2C1 [Compound T44] | 0.9 ± 0.15^f fold | 0.0106 ± 0.00083 µM | 1.07 ± 0.11^d fold | 4.39 ± 0.73 nM | 29.1% |  |  | 0.387 ± 0.037 |  |  | 
CNC(=O)c1cn([C@]23CCC(C)(C)C[C@H]2[C@H]2C(=O)C=C4[C@@]5(C)C=C(C#N)C(=O)C(C)(C)[C@@H]5CC[C@@]4(C)[C@]2(C)CC3)nn1 [Compound T41] | 0.8 ± 0.16^f fold | 0.0094 ± 0.00135 µM | 1.19 ± 0.22^d fold | 4.96 ± 1.58 nM | 17.1% |  |  | 0.320 ± 0.037 |  |  | 
